Results taken from patent US20230357312A1, “Borylated Di-Peptide Amino Acid compositions for use in Boron Neutron Capture Therapy and methods thereof” (TAE Life Sciences, priority 2021, published 2023).
Entries after “also recorded” stand apart in the source; their conditions may differ.

Tests used:
AsPC-1 cells [1] = experiment: Uptake of BPA and dipeptides in PEPT1 high expressing cells; assay type: cell-based, human; conditions: PEPT1 high expressing AsPC1 cells
Description: The indicated cancer cell line (A) or FaDu cells (B) were harvested from culture and washed twice with PBS. Cell lines were adjusted to 2 million cells/ml in Hanks Balanced Salt Solution (HBSS). BPA or dipeptide boron compounds were added to cells at the final concentration of 2.5 mM in HBSS and the treated cells were incubated at 37° C. 5% CO2 for 2 hrs with shaking. The cells were collected by centrifugation; washed with cold PBS twice and reconstituted in 1 ml of cold PBS. Then, 50 µl of cell suspension was removed, pelleted, and lysed using RIPA buffer and the protein concentration was determined using BCA assay. The remaining 950 µl was used for boron compounds uptake measurements using ICP-OES.
To this end, 0.5 mL of concentrated nitric acid was added to each cell pellet in a 15 mL conical tube. The tubes were capped and placed in an oven set at 80° C. for 3 hours. […] The boron content in each sample was then measured on an Agilent 5110 ICP-OES using an Agilent SPS4 Autosampler for sample introduction.
The data was analyzed using Agilent’s ICP Expert Software, version 7.4.2.10790. Boron was measured axially at the 249.772 nm wavelength and the internal standard Beryllium was measured axially at the 313.042 nm wavelength. […] Once determined, the boron measurement for each sample was normalized to protein content and final boron uptake results were expressed as ng boron/mg protein. […]

FaDu cells = experiment: Uptake inhibition by PEPT1 competitive inhibitor Gly-SAR; assay type: cell-based, human
Description: (§1) In this experiment, uptake of BPA and dipeptide His-BPA (0.8 mM of each) was carried out in FaDu and ASPC-1 in the presence and absence of the indicated concentrations of PEPT1 dipeptide transporter competitive inhibitor Gly-SAR. Normalized boron uptake was determined as in FIG. 15.

AsPC-1 cells [2] = experiment: as above; assay type: cell-based, human; conditions: 0.8 mM test compound, with and without Gly-SAR
Description: as §1

CT26 xenografts [3] = experiment: BNCT study, 12 or 6 minute irradiation at 5 MW; assay type: in vivo, BALB/c mice; conditions: 800 mg/kg, 12 minutes irradiation at 5 MW, monitored to 22 days
Description: Following one (1) hour of treatment time, mice were irradiated for either 12 minutes (33(A)) or 6 minutes (33(B)) at the Kyoto University Research Reactor (Kyoto, Japan) 1 set at 5 megawatts. Data are the means ± SD of 3 mice per treatment group. Tumors were measured for growth out to 22 days.

Solubility = assay type: physicochemical
[4] = system: FaDu, Detroit-562, MeWo, HCC-1954, A549 and AsPC-1 human cancer xenograft models; experiment: Dose escalation of boron delivery, all tested xenograft models; assay type: in vivo, CB17 SCID mice; conditions: 1000 mg/kg, 120 minutes
Description: Tumors were harvested 120 minutes following treatment and boron content determined by ICP-OES. Data are the means ± SD of 5 mice per treatment group.

FaDu subcutaneous tumors = experiment: Biodistribution of His-BPA, FaDu tumors in vivo; set-up: species or system female CB17 SCID mice; conditions: His-BPA 4X higher dose than BPA-F
Description: In this experiment, biodistribution of His-BPA was evaluated in vivo using the following protocols. All animal studies were carried out following the “Guide for the Care and Use the Laboratory Animals,” 8th Ed. and Animal Welfare Act (USDA). Human hypopharyngeal squamous cell carcinoma FaDu cells were maintained in DMEM, supplemented with L-glutamine and 10% FBS.
Subcutaneous (s.c.) tumors were generated by injection of 2.5 × 10^6 cancer cells mixed at a 1:1 dilution with Matrigel (Corning Life Sciences) in the right flank of female CB17 SCID mice. Tumor sizes were determined by caliper measurements, and the tumor volume was calculated as width^2×Length/2, wherein width is the smallest dimension and length is the largest dimension. Tumors were allowed to grow untreated until they reached an approximate volume of 300 mm^3. At that point, animals were randomized and allocated to each treatment group based on tumor volume at the time of treatment initiation to ensure similar mean tumor size and variation in each group. Each group received a single dose of BPA at […] or a test article at […] via intravenous tail vein injection. […]
Furthermore, all compounds tested, with the exception of BPA were prepared as 80-100 mg/mL stocks. […] The digested tissues were analyzed by ICP OES to determine the boron concentration.

CT26 xenografts [5] = experiment: BNCT tumor regression study, 6 minute irradiation; assay type: in vivo, BALB/c mice; conditions: 900 mg/kg, 6 minutes irradiation
Description: In this experiment, CT26 xenografts in BALB/c mice were dosed with 400 mg/kg of BPA or 900 mg/kg of His-BPA or BPA-BPA. Following one (1) hour treatment time, mice were irradiated for 6 minutes at the Kyoto University Research Reactor (Kyoto, Japan) 1 set at 5 megawatts. Data are the means ± SD of 3 mice per treatment group. Tumors were measured for growth out to 36 days and examined for tumor presence at 40 days. BPA and control groups were sacrificed at day 18 due to excessive tumor growth.

N[C@@H](Cc1c[nH]cn1)C(=O)N[C@@H](Cc1ccc(B(O)O)cc1)C(=O)O [His-BPA, Histidine-BPA]
boron uptake compared to BPA (AsPC-1 cells [1]): to a higher level than BPA | boron signal in PEPT1 negative FaDu cells (FaDu cells; 0.8 mM): does deliver a boron signal | effect of Gly-SAR on boron uptake (FaDu cells; 0.8 mM test compound, with and without Gly-SAR): no effect | effect of Gly-SAR on boron uptake (AsPC-1 cells [2]): dose dependent inhibitory effect | tumor growth after BNCT (CT26 xenografts [3]): significant and similar growth inhibition, even regression | solubility (in words, compared to BPA) (Solubility): high solubility; also recorded: improved solubility | tumor boron compared to BPA at 200 mg/kg [4]: higher boron levels | boron in the kidneys and pancreas compared to BPA-F (FaDu subcutaneous tumors): Significantly higher amounts of boron | visual inspection and histological examination of the tumor area (CT26 xenografts [5]; one treated mouse): lack of tumor tissue and only scar tissue at the original tumor site | tumor growth after BNCT (CT26 xenografts [5]; sustained out to 36 days): significant tumor regression
